In patent US12594265B2, “Methods and compositions for inhibition of STAT3” (Ohio State Innovation Foundation, priority 2017, dated 2026):

Legend:
[1] = system: EAE model of MS; experiment: T cell encephalitogenicity in adoptive transfer after in vitro treatment of the cells; format: in vivo; parameters: dose or concentration left out as unconfirmed; details: cells activated 3 days, then transferred into naïve B10PL mice
Method: EAE Induction. Immunization: 8-10 week old B6/WT or SJL/WT mice were s.c. injected over four sites in the flank with 200 μg MOG 35-55 or […] (CS bio) in an emulsion with CFA (Difco). 200 ng pertussis toxin (List) per mouse in PBS was injected i.p. at the time of immunization and 48 h later. Adoptive transfer: Splenocytes were isolated from naïve 5-10-week-old Vα2.3/Vβ8.2 TCR transgenic mice and activated with 10 μg/ml of MBP Ac1-11 with or without rmIL-6 in 24-well plates at […] with irradiated B10.PL splenocytes (6×10^8 cells/well). After 72 hours, the cells were washed with PBS and 8×10^6 were injected i.p. into naïve B10.PL mice. Evaluation. The mice were evaluated daily for clinical signs of EAE. Mice were scored on scale of 0 to 6:0, no clinical disease; 1, limp/flaccid tail; 2, moderate hind limb weakness; 3. severe hind limb weakness; 4. complete hind limb paralysis; 5 quadriplegia or premoribund state; and 6, death.
DMSO was used as vehicle control. The cells were then adoptively transferred into naïve B10PL mice (disease incidence). Data are representative of multiple independent experiments.

[2] = system: IL-23-induced IL-17 production in myelin specific CD4 T cells; experiment: IL-23-induced IL-17 production in myelin-specific CD4 T cells (splenocytes of PLP-immunized SJL mice); format: cell-based; details: PLP 139-151 with IL-23 for 3 days, different concentrations
From the text: Briefly, SJL mice were immunized with PLP 139-151. Splenocytes were isolated on day 20 after immunization and activated with PLP 139-151 with our without IL-23 for 3 days, in the presence of different concentrations of LLL12b or DMSO (vehicle control). […] Cells were gated on CD44+CD4+ T cells. Flow data are representative of three independent experiments. […] All error bars denote s.e.m. * * denotes p<0.01; *** denotes p<0.001; **** denotes p<0.0001.

[3] = system: pSTAT3 in CD4 T cells from MS patients; experiment: Phosphorylation of STAT3 in CD4 T cells from MS patients (phospho flow cytometry); format: cell-based, human; details: 0.25 μM; αhCD3 plus rhIL-6 for 30 minutes; 6 patients
Method: FIGS. 13A-13C show representative data for the effect of LLL12b treatment on the phosphorylation status of STAT3 in CD4 T-cells obtained from MS patients. Briefly, PBMCs from treatment-naïve MS patients were activated with αhCD3 plus rhIL-6 for 30 minutes, in the presence of 0.25 μM of LLL12b or vehicle control (DMSO). pSTAT3 was determined by phospho flow cytometry. Cells were gated on CD4+ cells.
LLL12b inhibits the phosphorylation of STAT3 in CD4 T cells from MS patients. To determine whether LLL12b suppresses the phosphorylation of STAT3 in human CD4 T cells, PBMCs from 6 treatment-naïve MS patients were activated with αhCD3 plus rhIL-6 for 30 minutes, in the presence of 0.25 μM of LLL12b or vehicle control (DMSO). pSTAT3 was determined by phospho flow cytometry.

Compound	T cell encephalitogenicity in adoptive transfer [1]	IL-23-induced IL-17 production [2]	pSTAT3 expression in CD4 T cells from MS patients [3]
NS(=O)(=O)c1cccc2c1C(=O)c1cccc(O)c1C2=O [LLL12]	inhibits T cell encephalitogenicity	–	–
CN(C)C(=O)Oc1cccc2c1C(=O)c1cccc(S(N)(=O)=O)c1C2=O [LLL12b]	–	inhibition of IL-23-induced IL-17 production	significantly suppresses pSTAT3 expression
